The NIST ThermoML archive (doi:10.1016/j.jct.2016.07.017)
± gives the expanded uncertainty stated by the source.

Assay: activity coefficient (dimensionless); of the first substance listed, at infinite dilution; xn = mol fraction of the nth substance listed
Conditions: 101.33 kPa, Liquid, Chromatography, x1 = 0

SMILES	activity coefficient (318.15 K)	activity coefficient (328.15 K)	activity coefficient (338.15 K)	activity coefficient (348.15 K)	activity coefficient (358.15 K)
Cc1ccccc1C [1,2-dimethylbenzene] + CC[N+](C)(CC)CCOC.O=S(=O)([N-]S(=O)(=O)C(F)(F)F)C(F)(F)F	1.93 ± 0.17	1.94 ± 0.17	1.95 ± 0.17	1.96 ± 0.17	1.97 ± 0.17
Cc1cccc(C)c1 [1,3-dimethylbenzene] + CC[N+](C)(CC)CCOC.O=S(=O)([N-]S(=O)(=O)C(F)(F)F)C(F)(F)F	2.12 ± 0.18	2.14 ± 0.18	2.14 ± 0.18	2.17 ± 0.19	2.18 ± 0.19
Cc1ccc(C)cc1 [1,4-dimethylbenzene] + CC[N+](C)(CC)CCOC.O=S(=O)([N-]S(=O)(=O)C(F)(F)F)C(F)(F)F	2.12 ± 0.18	2.15 ± 0.19	2.15 ± 0.19	2.17 ± 0.19	2.18 ± 0.19
C1COCCO1 [1,4-dioxane] + CC[N+](C)(CC)CCOC.O=S(=O)([N-]S(=O)(=O)C(F)(F)F)C(F)(F)F	0.66 ± 0.057	0.679 ± 0.058	0.704 ± 0.06	0.723 ± 0.061	0.734 ± 0.062
C=CCCCCCCCC [1-decene] + CC[N+](C)(CC)CCOC.O=S(=O)([N-]S(=O)(=O)C(F)(F)F)C(F)(F)F	40.4 ± 3.5	37.4 ± 3.2	34.4 ± 3	32.2 ± 2.8	29.8 ± 2.6
C=CCCCCC [1-heptene] + CC[N+](C)(CC)CCOC.O=S(=O)([N-]S(=O)(=O)C(F)(F)F)C(F)(F)F	13.3 ± 1.2	12.6 ± 1.1	11.9 ± 1	11.4 ± 1	10.9 ± 0.9
C#CCCCCC [1-heptyne] + CC[N+](C)(CC)CCOC.O=S(=O)([N-]S(=O)(=O)C(F)(F)F)C(F)(F)F	4.47 ± 0.39	4.43 ± 0.38	4.39 ± 0.38	4.35 ± 0.38	4.29 ± 0.37
C#CCCCC [1-hexyne] + CC[N+](C)(CC)CCOC.O=S(=O)([N-]S(=O)(=O)C(F)(F)F)C(F)(F)F	3.11 ± 0.27	3.11 ± 0.27	3.1 ± 0.27	3.1 ± 0.27	3.08 ± 0.27
CCC[N+](=O)[O-] [1-nitropropane] + CC[N+](C)(CC)CCOC.O=S(=O)([N-]S(=O)(=O)C(F)(F)F)C(F)(F)F	0.78 ± 0.066	0.778 ± 0.065	0.775 ± 0.065	0.772 ± 0.065	0.77 ± 0.065
C#CCCCCCC [1-octyne] + CC[N+](C)(CC)CCOC.O=S(=O)([N-]S(=O)(=O)C(F)(F)F)C(F)(F)F	6.47 ± 0.56	6.36 ± 0.55	6.21 ± 0.54	6.11 ± 0.53	5.97 ± 0.52
C#CCCC [1-pentyne] + CC[N+](C)(CC)CCOC.O=S(=O)([N-]S(=O)(=O)C(F)(F)F)C(F)(F)F	2.15 ± 0.19	2.17 ± 0.19	2.18 ± 0.19	2.19 ± 0.19	2.21 ± 0.19
CC(C)CC(C)(C)C [2,2,4-trimethylpentane] + CC[N+](C)(CC)CCOC.O=S(=O)([N-]S(=O)(=O)C(F)(F)F)C(F)(F)F	25.7 ± 2.2	23.8 ± 2.1	21.7 ± 1.9	21 ± 1.8	20 ± 1.7
CCC(C)(C)C [2,2-dimethylbutane] + CC[N+](C)(CC)CCOC.O=S(=O)([N-]S(=O)(=O)C(F)(F)F)C(F)(F)F	15.1 ± 1.3	14 ± 1.2	13.3 ± 1.2	12.5 ± 1.1	11.9 ± 1
CCOC(C)(C)C [2-ethoxy-2-methylpropane] + CC[N+](C)(CC)CCOC.O=S(=O)([N-]S(=O)(=O)C(F)(F)F)C(F)(F)F	6.09 ± 0.53	5.94 ± 0.51	5.86 ± 0.51	5.71 ± 0.49	5.59 ± 0.48
CCCCC(C)=O [2-hexanone] + CC[N+](C)(CC)CCOC.O=S(=O)([N-]S(=O)(=O)C(F)(F)F)C(F)(F)F	1.14 ± 0.09	1.15 ± 0.1	1.16 ± 0.1	1.18 ± 0.1	1.19 ± 0.1
CCC(C)(C)OC [2-methoxy-2-methylbutane] + CC[N+](C)(CC)CCOC.O=S(=O)([N-]S(=O)(=O)C(F)(F)F)C(F)(F)F	3.87 ± 0.33	3.86 ± 0.33	3.83 ± 0.33	3.8 ± 0.33	3.76 ± 0.32
COC(C)(C)C [2-methoxy-2-methylpropane] + CC[N+](C)(CC)CCOC.O=S(=O)([N-]S(=O)(=O)C(F)(F)F)C(F)(F)F	2.62 ± 0.23	2.63 ± 0.23	2.65 ± 0.23	2.67 ± 0.23	2.67 ± 0.23
CCCC(=O)CC [3-hexanone] + CC[N+](C)(CC)CCOC.O=S(=O)([N-]S(=O)(=O)C(F)(F)F)C(F)(F)F	1.21 ± 0.1	1.22 ± 0.1	1.23 ± 0.1	1.24 ± 0.1	1.25 ± 0.1

SMILES	activity coefficient (318.15 K)	activity coefficient (328.15 K)	activity coefficient (338.15 K)	activity coefficient (348.15 K)	activity coefficient (358.15 K)
CCC(C)CC [3-methylpentane] + CC[N+](C)(CC)CCOC.O=S(=O)([N-]S(=O)(=O)C(F)(F)F)C(F)(F)F	16.1 ± 1.4	14.9 ± 1.3	14 ± 1.2	13.1 ± 1.1	12.5 ± 1.1
CC(C)=O [acetone] + CC[N+](C)(CC)CCOC.O=S(=O)([N-]S(=O)(=O)C(F)(F)F)C(F)(F)F	0.484 ± 0.045	0.491 ± 0.046	0.499 ± 0.046	0.509 ± 0.047	0.518 ± 0.047
CC#N [acetonitrile] + CC[N+](C)(CC)CCOC.O=S(=O)([N-]S(=O)(=O)C(F)(F)F)C(F)(F)F	0.488 ± 0.045	0.488 ± 0.045	0.488 ± 0.045	0.49 ± 0.045	0.49 ± 0.045
c1ccccc1 [benzene] + CC[N+](C)(CC)CCOC.O=S(=O)([N-]S(=O)(=O)C(F)(F)F)C(F)(F)F	1.03 ± 0.08	1.04 ± 0.09	1.05 ± 0.09	1.07 ± 0.09	1.07 ± 0.09
CCCCO [butan-1-ol] + CC[N+](C)(CC)CCOC.O=S(=O)([N-]S(=O)(=O)C(F)(F)F)C(F)(F)F	2.96 ± 0.26	2.63 ± 0.23	2.39 ± 0.21	2.18 ± 0.19	2 ± 0.17
C1CCCCCC1 [cycloheptane] + CC[N+](C)(CC)CCOC.O=S(=O)([N-]S(=O)(=O)C(F)(F)F)C(F)(F)F	14.9 ± 1.3	13.7 ± 1.2	12.7 ± 1.1	11.8 ± 1	11 ± 1
C1CCCCC1 [cyclohexane] + CC[N+](C)(CC)CCOC.O=S(=O)([N-]S(=O)(=O)C(F)(F)F)C(F)(F)F	10.8 ± 0.9	10 ± 0.9	9.39 ± 0.81	8.74 ± 0.75	8.3 ± 0.72
C1=CCCCC1 [cyclohexene] + CC[N+](C)(CC)CCOC.O=S(=O)([N-]S(=O)(=O)C(F)(F)F)C(F)(F)F	5.83 ± 0.5	5.56 ± 0.48	5.33 ± 0.46	5.16 ± 0.45	4.93 ± 0.43
C1CCCCCCC1 [cyclooctane] + CC[N+](C)(CC)CCOC.O=S(=O)([N-]S(=O)(=O)C(F)(F)F)C(F)(F)F	20.4 ± 1.8	18.6 ± 1.6	17 ± 1.5	15.7 ± 1.4	14.5 ± 1.3
C1CCCC1 [cyclopentane] + CC[N+](C)(CC)CCOC.O=S(=O)([N-]S(=O)(=O)C(F)(F)F)C(F)(F)F	7.28 ± 0.63	6.85 ± 0.59	6.47 ± 0.56	6.12 ± 0.53	5.79 ± 0.5
CCCCCCCCCC [decane] + CC[N+](C)(CC)CCOC.O=S(=O)([N-]S(=O)(=O)C(F)(F)F)C(F)(F)F	82 ± 7.1	72.7 ± 6.3	65.4 ± 5.7	58.1 ± 5	52.6 ± 4.6
CCOCC [diethyl ether] + CC[N+](C)(CC)CCOC.O=S(=O)([N-]S(=O)(=O)C(F)(F)F)C(F)(F)F	2.62 ± 0.23	2.6 ± 0.22	2.6 ± 0.22	2.59 ± 0.22	2.57 ± 0.22
CC(C)OC(C)C [diisopropyl ether] + CC[N+](C)(CC)CCOC.O=S(=O)([N-]S(=O)(=O)C(F)(F)F)C(F)(F)F	6.4 ± 0.55	6.28 ± 0.54	6.16 ± 0.53	6.03 ± 0.52	5.88 ± 0.51
CCCOCCC [dipropyl ether] + CC[N+](C)(CC)CCOC.O=S(=O)([N-]S(=O)(=O)C(F)(F)F)C(F)(F)F	6.84 ± 0.59	6.58 ± 0.57	6.41 ± 0.55	6.25 ± 0.54	6.07 ± 0.52
CCO [ethanol] + CC[N+](C)(CC)CCOC.O=S(=O)([N-]S(=O)(=O)C(F)(F)F)C(F)(F)F	1.77 ± 0.15	1.62 ± 0.14	1.5 ± 0.13	1.38 ± 0.12	1.28 ± 0.11
CCc1ccccc1 [ethylbenzene] + CC[N+](C)(CC)CCOC.O=S(=O)([N-]S(=O)(=O)C(F)(F)F)C(F)(F)F	2.24 ± 0.19	2.25 ± 0.19	2.26 ± 0.19	2.28 ± 0.2	2.29 ± 0.2
CCCCCCC [heptane] + CC[N+](C)(CC)CCOC.O=S(=O)([N-]S(=O)(=O)C(F)(F)F)C(F)(F)F	26.4 ± 2.3	24.4 ± 2.1	22.3 ± 1.9	21 ± 1.8	19.3 ± 1.7
